Source: patent US20060079540A1, “Pde4 and pde3/4 inhibitors for use in the treatment of cachexia” (Altana Pharma AG, priority 2002, published 2006)

How the values were obtained:
Type in all cases: cell-based, human
[1] = test system: secretion of TNFα from LXFA 526 lung adenocarcinoma Xenograft explants; assay: TNFα secretion from LXFA 526 lung adenocarcinoma xenograft explants (ELISA); conditions: for TNFα content of the supernatants: 24 hours, DMSO control 16.8 pg/ml
Method: (§1) FIG. 3: Effects of Zardaverine (left graph) and Piclamilast (right graph) on the secretion of TNFα from LXFA 526 lung adenocarcinoma Xenograft explants. Tumor fragments from mice carrying LXFA 526 xenografts were excised and cell suspensions were seeded into 24 Well plates. After seeding of the cells, Zardaverine at concentrations of 100, 3, and 0.1 μM, respectively, and Piclamilast at concentrations of 1, 0.3 and 0.001 μM, respectively were added and supernatants were harvested 24 hours later. TNFα content of the supernatants was quantitated using R&D Quantikine ELISA kits according to the manufacturer's recommendations.
(§2) To this end primary cultures of tumor cells were derived from cachexia inducing human xenografts grown subcutaneously in nude mice.
(§3) 5 to 10 NMRI nude mice were implanted with tumor fragments derived from the above mentioned Xenografts and grown until the tumors reached approximately 0.5 g, which correlated well with the onset of cachexia. Animals were then sacrificed and tumors were excised. Cells were subsequently isolated under sterile conditions by the use of mechanic disintegrators, proteases, hyaluronidase, and DNAse I. The crude suspension was passed twice through sterile sieves with diameters of 200 and 50 μM, respectively.
(§4) Washed cell pellets were resuspended in Iscove's modified Dulbecco's Medium +20% FCS (fetal calf serum) and 0.24 to 1×10^6 tumor cells were seeded in 24 well plates. The cell isolates not only contained tumor cells, but also blood cells and stromal elements of murine origin. The cell lines RXF 486L was directly utilized and 1×10^6 cells were seeded into each well.
(§5) Piclamilast and Zardaverine were dissolved in 100% DMSO (dimethyl sulfoxide) and applied at a final concentration of 1 μM to 0.001 μM (Piclamilast) or 100 μM to 0.1 μM (Zardaverine). Drugs and cells were plated at the same time. 24 hours after seeding supernatants were collected, centrifuged, and stored at −80° C.
(§6) For the quantitative measurement of IL-1, IL-6, and TNFα, respectively, the supernatants were analyzed using Quantikine ELISA Kits from R&D Systems according to the manufacturer's recommendations.

[2] = test system: secretion of IL-1 from RXF 393 hypernephroma Xenograft explants; assay: IL-1 secretion from RXF 393 hypernephroma xenograft explants (ELISA); conditions: for IL-1 content of the supernatants: 24 hours, DMSO control 46.9 pg/ml
Method: as §1, with “2:” for “3:”, “IL-1” for “TNFα”, “RXF 393 hypernephroma” for “LXFA 526 lung adenocarcinoma”, “RXF 393” for “LXFA 526”, “100” for “100, 3,”, “0.01” for “0.3”
as §2, §3, §4, §5, §6

[3] = test system: secretion of IL-1 from LXFA 526 lung adenocarcinoma Xenograft explants; assay: IL-1 secretion from LXFA 526 lung adenocarcinoma xenograft explants (ELISA); conditions: for IL-1 content of the supernatants: 24 hours, DMSO control 85.3 pg/ml
Method: as §1, with “1:” for “3:”, “IL-1” for “TNFα”
as §2, §3, §4, §5, §6

[4] = test system: secretion of TNFα from LXFE 397 epidermoid adenocarcinoma Xenograft explants; assay: TNFα secretion from LXFE 397 epidermoid adenocarcinoma xenograft explants (ELISA); conditions: for TNFα content of the supernatants: 24 hours
Method: FIG. 4: Effects of Zardaverine (left graph) and Piclamilast (right graph) on the secretion of TNFα from LXFE 397 epidermoid adenocarcinoma Xenograft explants. Tumor fragments from mice carrying LXFE 397 xenografts were excised and cell suspensions were seeded into 24 Well plates. After seeding of the cells, Zardaverine at concentrations of 30, 10, and 3 μM, respectively, and Piclamilast at concentrations of 0.3; 0.1; and 0.03 μM, respectively were added and supernatants were harvested 24 hours later. TNFα content of the supernatants was quantitated using R&D Quantikine ELISA kits according to the manufacturers recommendations.
as §2, §3, §4, §5, §6

COc1ccc(C(=O)Nc2c(Cl)cncc2Cl)cc1OC1CCCC1 [Piclamilast]
TNFα content of the supernatants ([1]; 0.001 μM): 17.2 pg/mL | TNFα content of the supernatants ([1]; 0.3 μM): 15.1 pg/mL | TNFα content of the supernatants ([1]; 1 μM): 13.9 pg/mL | modulation of TNFα levels (in words) ([1]; LXFA 526 cells): able to inhibit the secretion of TNFα | IL-1 content of the supernatants ([2]; 0.001 μM): 43.2 pg/mL | IL-1 content of the supernatants ([2]; 0.01 μM): 43.9 pg/mL | IL-1 content of the supernatants ([2]; 1 μM): 37.8 pg/mL | Modulation of IL-1 expression (in words) ([2]; RXF 393): able to suppress IL-1 levels | IL-1 content of the supernatants ([3]; 0.001 μM): 81.9 pg/mL | IL-1 content of the supernatants ([3]; 0.3 μM): 64.4 pg/mL | IL-1 content of the supernatants ([3]; 1 μM): 68.9 pg/mL | Modulation of IL-1 expression (in words) ([3]; LXFA 526): able to suppress IL-1 levels | TNFα content of the supernatants ([4]; 0.03 μM, DMSO control 21.5 pg/ml): 14.1 pg/mL | TNFα content of the supernatants ([4]; 0.1 μM, DMSO control 21.5 pg/ml): 12.1 pg/mL | TNFα content of the supernatants ([4]; 0.3 μM, DMSO control 21.5 pg/ml): 10 pg/mL | modulation of TNFα levels (in words) ([4]; LXFE 397 model): able to inhibit the secretion of TNFα

COc1cc(-c2ccc(=O)[nH]n2)ccc1OC(F)F [Zardaverine]
TNFα content of the supernatants ([1]; 0.1 μM): 13.8 pg/mL | TNFα content of the supernatants ([1]; 3 μM): 12.9 pg/mL | TNFα content of the supernatants ([1]; 100 μM): 12.6 pg/mL | IL-1 content of the supernatants ([2]; 0.1 μM): 48.1 pg/mL | IL-1 content of the supernatants ([2]; 100 μM): 32.1 pg/mL | IL-1 content of the supernatants ([3]; 0.1 μM): 77.1 pg/mL | IL-1 content of the supernatants ([3]; 3 μM): 67.9 pg/mL | IL-1 content of the supernatants ([3]; 100 μM): 64.5 pg/mL | TNFα content of the supernatants ([4]; 3 μM, DMSO control 30.3 pg/ml): 27.7 pg/mL | TNFα content of the supernatants ([4]; 10 μM, DMSO control 30.3 pg/ml): 28.2 pg/mL | TNFα content of the supernatants ([4]; 30 μM, DMSO control 30.3 pg/ml): 20.1 pg/mL
